Measurements reported in US20070179060A1, “6-(Poly-substituted aryl)-4-aminopicolinates and their use as herbicides” (priority 2006, published 2007).

Experiments:
[1] = tested on: lambsquarter (Chenopodium album); experiment: Postemergence herbicidal activity; format: in vivo; settings: post-emergent, 140 g ai/ha, after 14 days; for pest or weed control at 140 g/ha: Chenopodium album, post-emergence, 336 h, read-out: % Control CHEAL
Procedure: (§1) Seeds or nutlets of the desired test plant species were planted in Sun Gro MetroMix® 306 planting mixture, which typically has a pH of 6.0 to 6.8 and an organic matter content of about 30 percent, in plastic pots with a surface area of 64 square centimeters. When required to ensure good germination and healthy plants, a fungicide treatment and/or other chemical or physical treatment was applied. The plants were grown for 7-21 days in a greenhouse with an approximate 15 hour photoperiod which was maintained at about 23-29° C. during the day and 22-28° C. during the night. Nutrients and water were added on a regular basis and supplemental lighting was provided with overhead metal halide 1000-Watt lamps as necessary. The plants were employed for testing when they reached the first or second true leaf stage. […] The concentrated stock solutions obtained were diluted with 20 mL of an aqueous mixture containing acetone, water, isopropyl alcohol, DMSO, Atplus 411F crop oil concentrate, and Triton® X-155 surfactant in a 48.5:39:10:1.5:1.0:0.02 v/v ratio to obtain spray solutions containing the highest application rates. […] Compound requirements are based upon a 12 mL application volume at a rate of 187 L/ha. Formulated compounds were applied to the plant material with an overhead Mandel track sprayer equipped with a […] nozzles calibrated to deliver 187 L/ha over an application area of 0.503 square meters at a spray height of 18 inches (43 cm) above the average plant canopy height. Control plants were sprayed in the same manner with the solvent blank. The treated plants and control plants were placed in a greenhouse as described above and watered by sub-irrigation to prevent wash-off of the test compounds. […] By applying the well-accepted probit analysis as described by J. Berkson in Journal of the American Statistical […], 48, 565 (1953) and by D.

[2] = tested on: redroot pigweed (Amaranthus retroflexus); experiment: Postemergence herbicidal activity; format: in vivo; settings: post-emergent, 140 g ai/ha, after 14 days; for pest or weed control at 140 g/ha: Amaranthus retroflexus, post-emergence, 336 h, read-out: % Control AMARE
Procedure: as §1

[3] = tested on: velvetleaf (Abutilon theophrasti); experiment: Postemergence herbicidal activity; format: in vivo; settings: post-emergent, 140 g ai/ha, after 14 days; for pest or weed control at 140 g/ha: Abutilon theophrasti, post-emergence, 336 h, read-out: % Control ABUTH
Procedure: as §1

[4] = tested on: lambsquarter (Chenopodium album); experiment: Preemergence herbicidal activity; format: in vivo; settings: pre-emergent, 140 g ai/ha, after 20-22 days; for pest or weed control at 140 g/ha: Chenopodium album, pre-emergence, 480 h, read-out: % Control CHEAL
Text: (§2) Seeds of the desired test plant species were planted in a soil matrix prepared by mixing a loam soil (43 percent silt, 19 percent clay, and 38 percent sand, with a pH of about 8.1 and an organic matter content of about 1.5 percent) and sand in a 70 to 30 ratio. The soil matrix was contained in plastic pots with a surface area of 113 square centimeters. When required to ensure good germination and healthy plants, a fungicide treatment and/or other chemical or physical treatment was applied. […] Compound requirements are based upon a 12 mL application volume at a rate of 187 L/ha. Formulated compounds were applied to the plant material with an overhead Mandel track sprayer equipped with a […] nozzles calibrated to deliver 187 L/ha over an application area of 0.503 square meters at a spray height of 18 inches (43 cm) above the soil surface. Control plants were sprayed in the same manner with the solvent blank. The treated pots and control pots were placed in a greenhouse maintained with an approximate 15 hour photoperiod and temperatures of about 23-29° C. during the day and 22-28° C. during the night. Nutrients and water were added on a regular basis and supplemental lighting was provided with overhead metal halide 1000-watt lamps as necessary. The water was added by top-irrigation.

[5] = tested on: redroot pigweed (Amaranthus retroflexus); experiment: Preemergence herbicidal activity; format: in vivo; settings: pre-emergent, 140 g ai/ha, after 20-22 days; for pest or weed control at 140 g/ha: Amaranthus retroflexus, pre-emergence, 480 h, read-out: % Control AMARE
Text: as §2

[6] = tested on: velvetleaf (Abutilon theophrasti); experiment: Preemergence herbicidal activity; format: in vivo; settings: pre-emergent, 140 g ai/ha, after 20-22 days; for pest or weed control at 140 g/ha: Abutilon theophrasti, pre-emergence, 480 h, read-out: % Control ABUTH
Text: as §2

| melting point | Compound | % Control CHEAL [1] [%] | % Control AMARE [2] [%] | % Control ABUTH [3] [%] | % Control CHEAL [4] [%] | % Control AMARE [5] [%] | % Control ABUTH [6] [%] | pest or weed control at 140 g/ha [1] [%] | pest or weed control at 140 g/ha [2] [%] | pest or weed control at 140 g/ha [3] [%] | pest or weed control at 140 g/ha [4] [%] | pest or weed control at 140 g/ha [5] [%] | pest or weed control at 140 g/ha [6] [%] |
| --- | --- | --- | --- | --- | --- | --- | --- | --- | --- | --- | --- | --- | --- |
| 170 to 172 °C (dec.) | Cc1c(Cl)ccc(-c2cc(N)c(Cl)c(C(=O)O)n2)c1Cl [Compound 98, 4-Amino-3-chloro-6-(2,4-dichloro-3-methylphenyl)pyridine-2-carboxylic acid] |  |  |  |  |  |  | 80 | 70 | 90 |  |  |  |
| 129 to 130 °C | COC(=O)c1nc(-c2ccc(F)c(C)c2F)cc(N)c1Cl [Compound 47, 4-Amino-3-chloro-6-(2,4-difluoro-3-methylphenyl)pyridine-2-carboxylic acid methyl ester] |  |  |  |  |  |  | 100 | 100 | 100 |  |  |  |
| 163 to 164 °C | COC(=O)c1nc(-c2ccc(F)c(F)c2F)cc(N)c1Cl [Compound 67, 4-Amino-3-chloro-6-(2,3,4-trifluorophenyl)pyridine-2-carboxylic acid, methyl ester] |  |  |  |  |  |  | 100 | 100 | 100 |  |  |  |
| 144 to 144.5 °C | COC(=O)c1nc(-c2c(F)cc(Cl)c(OC)c2F)cc(NC(C)=O)c1Cl [Compound 40, 4-Acetylamino-3-chloro-6-(4-chloro-2,6-difluoro-3-methoxyphenyl)pyridine-2-carboxylic acid, methyl ester] |  |  |  |  |  |  | 100 | 95 | 95 |  |  |  |
| 134 to 136 °C | COC(=O)c1nc(-c2ccc(C(F)F)c(OC)c2Cl)cc(N)c1Cl [Compound 79, 4-Amino-3-chloro-6-(2-chloro-4-difluoromethyl-3-methoxyphenyl)pyridine-2-carboxylic acid, methyl ester] |  |  |  |  |  |  | 100 | 90 | 95 |  |  |  |
| 152 to 153 °C | COC(=O)c1nc(-c2ccc(Cl)c(C(F)F)c2Cl)cc(NC(C)=O)c1Cl [Compound 30, 4-Acetylamino-3-chloro-6-[2,4-dichloro-3-(difluoromethyl)phenyl]pyridine-2-carboxylic acid, methyl ester] |  |  |  |  |  |  | 95 | 90 | 100 |  |  |  |
| 185 to 186 °C | CNc1c(Cl)ccc(-c2cc(N)c(Cl)c(C(=O)O)n2)c1F [Compound 118, 4-Amino-3-chloro-6-[4-chloro-2-fluoro-3-(methylamino)phenyl]pyridine-2-carboxylic acid] |  |  |  |  |  |  | 100 | 100 | 100 |  |  |  |
| 89 to 90 °C | COCCOc1c(Cl)ccc(-c2cc(N)c(Cl)c(C(=O)OC)n2)c1F [Compound 11, 4-Amino-3-chloro-6-[4-chloro-2-fluoro-3-(methoxyethoxy)phenyl]pyridine-2-carboxylic acid methyl ester] |  |  |  |  |  |  | 80 | 95 | 90 |  |  |  |

Second part, the compound before the results:

| Compound | melting point | % Control CHEAL [1] [%] | % Control AMARE [2] [%] | % Control ABUTH [3] [%] | % Control CHEAL [4] [%] | % Control AMARE [5] [%] | % Control ABUTH [6] [%] | pest or weed control at 140 g/ha [1] [%] | pest or weed control at 140 g/ha [2] [%] | pest or weed control at 140 g/ha [3] [%] | pest or weed control at 140 g/ha [4] [%] | pest or weed control at 140 g/ha [5] [%] | pest or weed control at 140 g/ha [6] [%] |
| --- | --- | --- | --- | --- | --- | --- | --- | --- | --- | --- | --- | --- | --- |
| CN(C)c1c(Cl)ccc(-c2cc(N)c(Cl)c(C(=O)O)n2)c1F [Compound 112, 4-Amino-3-chloro-6-(4-chloro-3-dimethyamino-2-fluorophenyl)pyridine-2-carboxylic acid] |  | 100 | 100 | 100 | 100 | 100 | 100 |  |  |  |  |  |  |
| COC(=O)c1nc(-c2c(F)cc(C#N)c(OC)c2F)cc(N)c1Cl [Compound 95, 4-amino-3-chloro-6-(4-cyano-2,6-difluoro-3-methoxyphenyl)pyridine-2-carboxylic acid, methyl ester] |  |  |  |  |  |  |  | 90 | 85 | 100 | 90 | 90 | 90 |
| CN(C)c1cc(-c2cc(N)c(Cl)c(C(=O)O)n2)c(F)cc1Cl [Compound 111, 4-Amino-3-chloro-6-(4-chloro-5-dimethyamino-2-fluorophenyl)pyridine-2-carboxylic acid] |  |  |  |  | 100 | 100 | 35 |  |  |  |  |  |  |
| Nc1cc(-c2ccc(F)c(F)c2F)nc(C(=O)O)c1Cl [Compound 131, 4-Amino-3-chloro-6-(2,3,4-trifluorophenyl)pyridine-2-carboxlic acid] |  | 100 | 100 | 100 | 100 | 100 | 90 |  |  |  |  |  |  |
| COC(=O)c1nc(-c2ccc(Cl)c(C(C)F)c2Cl)cc(N)c1Cl (stereo not shown) [Compound 63] |  | 100 | 100 | 100 | 100 | 100 | 100 |  |  |  |  |  |  |
| CCOc1c(Cl)cc(F)c(-c2cc(N)c(Cl)c(C(=O)OC)n2)c1F [Compound 59, 4-Amino-3-chloro-6-(4-chloro-2,6-difluoro-3-ethoxyphenyl)pyridine-2-carboxylic acid, methyl ester] |  |  |  |  |  |  |  | 90 | 90 | 100 | 60 | 100 | 90 |
| COC(=O)c1nc(-c2ccc(Cl)c(C(=O)C(F)(F)F)c2F)cc(N)c1Cl [Compound 82, 4-Amino-3-chloro-6-[4-chloro-2-fluoro-3-(2,2,2-trifluoroacetyl)phenyl]pyridine-2-carboxylic acid, methyl ester] |  |  |  |  |  |  |  | 95 | 100 | 100 | 100 | 100 | 90 |
| COC(=O)c1nc(-c2ccc(Cl)c(C(F)F)c2Cl)cc(N)c1Cl [Compound 62, 4-Amino-3-chloro-6-(2,4-dichloro-3-difluoromethylphenyl)pyridine-2-carboxylic acid, methyl ester] |  |  |  |  |  |  |  | 100 | 100 | 100 | 100 | 100 | 100 |
| CCOc1cc(-c2cc(N)c(Cl)c(C(=O)OC)n2)c(F)cc1Cl [Compound 9, 4-Amino-3-chloro-6-(4-chloro-2-fluoro-5-ethoxyphenyl)pyridine-2-carboxylic acid methyl ester] | 115 to 116 °C |  |  |  |  |  |  | 100 | 100 | 85 |  |  |  |
| COC(=O)c1nc(-c2ccc(Cl)c(C#N)c2F)cc(N)c1Cl [Compound 2, 4-Amino-3-chloro-6-(4-chloro-3-cyano-2-fluorophenyl)pyridine-2-carboxylic acid methyl ester] | 189 to 190 °C |  |  |  |  |  |  | 80 | 90 | 85 |  |  |  |
